Key:
[1] = tested on: neofollicle germs in the wound area; experiment: Neofollicle germ formation after full thickness excision (FTE) in mice, counted by confocal imaging and AP staining; format: in vivo, C57BL6/J female mice
Protocol: A study was conducted to assess the degree to which valproic acid could stimulate growth of new hair follicles by in mice when applied after a full thickness excision (FTE) procedure. FTE creates a zone of hair follicles that are 100% newly formed and removes noise from other clouding factors (e.g., migration of pre-existing follicles into the wound) (e.g., as described in Ito et. al., Nature, May 2007, “Wnt-dependent de novo hair follicle regeneration in adult mouse skin after wounding”, the contents of which is herein incorporated by reference in its entirety). The study was conducted with 2 arms (1) vehicle control and (2) 8.3% valproic acid; n=21 mice per arm). Valproic acid or placebo was applied twice daily for 4 days following scab detachment. The resulting data was analyzed and compared to a vehicle compound control cohort.
Day-12 C57BL6/J female mice pups (Jackson Labs) were maintained in cages and fed a high fat diet until day of surgery. […] After 1 hour, the mice were injected with ketamine (70 mg/kg)-xylazine (8 mg/kg), assigned a Study ID, and weight was recorded. […]
The degree of neofollicle germ formation was measured in the wound area, using imaging by confocal microscopy (confocal scanning laser microscope (CSLM) (VivaScope 1500, Lucid Inc., Rochester, N.Y., USA) and counting the number of early hair follicles developing underneath the surface of the skin. […]

total hair counts = conditions: topical; male patients with androgenetic alopecia; Jo et al., Journal of Dermatology 2014; cited from earlier work

## CCCC(CCC)C(=O)O [Valproic Acid, 2-propylpentanoic acid]
[1]; FTE + VPA 8.3% topical twice daily for 4 days, mice
  Number of neofollicles versus FTE + vehicle treated controls (in words): strong trend indicating increased numbers of neofollicles
[1]; FTE mice, 8.3% valproic acid in 50% ethanol/30% water/20% propylene glycol, topical 20 uL twice daily for 4 days after scab detachment, n=15, vehicle control 26.3 (n=21), one-tail P 0.066
  Mean count of neofollicles (Primary 1 + Primary 2 scoring categories): 37.1
Total hair counts
  Total hair count (in words): increase total hair counts

Source: patent US20200289441A1, “METHODS FOR PROMOTING HAIR GROWTH USING VALPROIC ACID” (FOLLICA, INC., priority 2017, published 2020)
